Test results taken from ChEMBL document CHEMBL5214914, “Novel strategies to improve tumour therapy by targeting the proteins MCT1, MCT4 and LAT1” (Eur J Med Chem, 2021).
One block for each compound: values may come before it.

What was measured:
[1] = target: T1, Large neutral amino acids transporter small subunit 1 (Homo sapiens, UniProt Q01650); experiment: Inhibition of LAT1 (unknown origin) expressed in astrocytes assessed as inhibition of [14C]phenylalanine uptake at 50 uM; type: cell-based; conditions: Astrocyte
[2] = target: T1, Large neutral amino acids transporter small subunit 1; experiment: Inhibition of LAT1 (unknown origin) expressed in S2 cells assessed as inhibition of [14C]phenylalanine uptake at 50 uM; type: cell-based
[3] = target: T1, Large neutral amino acids transporter small subunit 1; experiment: Inhibition of LAT1 in human MCF7 cells assessed as inhibition of leucine uptake; type: cell-based
MCF7 = experiment: Antiproliferative activity against human MCF7 cells assessed as inhibition of cell growth; type: functional, cell-based
Raji = experiment: Cytotoxicity against human Raji cells; type: functional, cell-based
[4] = Half life in human; type: ADME
BXPC-3 = experiment: Antitumor activity against human BXPC-3 cells xenografted in ip dosed mouse assessed as prolongation of animal's mean life span; type: functional
MIA PaCa-2 = experiment: Antitumor activity against human MIA PaCa-2 cells xenografted in ip dosed mouse assessed as prolongation of animal's mean life span; type: functional
[5] = target: T2, Monocarboxylate transporter 1 (Rattus norvegicus, UniProt P53987); experiment: Inhibition of MCT1 in rat RBE4 cells assessed as reduction in [14C]lactate uptake measured after 15 mins by liquid scintillation counting analysis; type: cell-based
T2 sequence (P53987 whole entry): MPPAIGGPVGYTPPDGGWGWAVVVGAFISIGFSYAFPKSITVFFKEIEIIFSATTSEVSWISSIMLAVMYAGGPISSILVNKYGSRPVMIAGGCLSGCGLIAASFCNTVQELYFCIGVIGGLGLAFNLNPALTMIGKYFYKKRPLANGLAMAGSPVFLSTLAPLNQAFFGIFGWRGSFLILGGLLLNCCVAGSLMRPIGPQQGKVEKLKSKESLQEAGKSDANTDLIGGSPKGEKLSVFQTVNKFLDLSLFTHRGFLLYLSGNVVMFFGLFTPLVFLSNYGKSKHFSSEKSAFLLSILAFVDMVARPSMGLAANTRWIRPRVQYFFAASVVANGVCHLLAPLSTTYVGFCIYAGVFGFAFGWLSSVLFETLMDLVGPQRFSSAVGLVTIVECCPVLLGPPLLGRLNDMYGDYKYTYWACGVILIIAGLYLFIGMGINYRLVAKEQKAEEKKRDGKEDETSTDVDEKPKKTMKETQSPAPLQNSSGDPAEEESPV

[6] = Drug metabolism in Sprague-Dawley rat plasma at 10 uM measured after 8 hrs; type: ADME, cell-free, Sprague-Dawely; conditions: read-out: Drug metabolism

T1 sequence (Q01650 whole entry): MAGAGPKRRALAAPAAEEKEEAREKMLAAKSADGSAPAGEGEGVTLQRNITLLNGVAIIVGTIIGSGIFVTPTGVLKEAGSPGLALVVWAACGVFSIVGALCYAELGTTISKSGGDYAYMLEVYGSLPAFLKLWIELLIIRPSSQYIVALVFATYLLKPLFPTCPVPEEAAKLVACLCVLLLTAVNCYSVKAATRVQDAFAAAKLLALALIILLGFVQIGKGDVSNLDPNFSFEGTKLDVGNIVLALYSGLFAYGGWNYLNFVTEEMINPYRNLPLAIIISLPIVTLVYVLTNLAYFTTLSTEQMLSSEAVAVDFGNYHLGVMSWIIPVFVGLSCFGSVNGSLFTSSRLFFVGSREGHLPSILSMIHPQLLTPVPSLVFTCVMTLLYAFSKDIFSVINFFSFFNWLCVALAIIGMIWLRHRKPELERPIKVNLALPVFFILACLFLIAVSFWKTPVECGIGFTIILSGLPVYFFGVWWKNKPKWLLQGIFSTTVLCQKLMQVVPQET

- inhibition [1]: 90%
- inhibition [2]: 90%
SMILES: NC(Cc1cc(I)c(Oc2ccc(O)c(I)c2)c(I)c1)C(=O)O (stereo not given)

- IC50 [3]: 18200 nM
- IC50 (MCF7): 124000 nM
SMILES: CNC(=O)COc1ccc(C2=C(C#N)C3N=C4C=CC=CC4N3C(NC(=O)c3cccc(C[C@H](N)C(=O)O)c3)=C2C#N)cc1 (stereo not given in full)

SMILES: CC(C)Cc1nn(C)c(=O)c2c(SCCCO)n(Cc3cnc(NCCCCCNC(=O)[C@H](N)CCC(N)=O)c4ccccc34)cc12
- EC50 (Raji): 0.16 nM

- half-life [4]: 9 min
SMILES: Nc1ccn([C@@H]2O[C@H](CO)[C@@H](O)C2(F)F)c(=O)n1 [GEMCITABINE]

SMILES: Nc1cc(COc2c(Cl)cc(CC(N)C(=O)O)cc2Cl)c2oc(-c3ccccc3)nc2c1 (stereo not given)
- ILS (BXPC-3): 10 days
- ILS (MIA PaCa-2): 14 days

- IC50 [5]: 66 nM
SMILES: CC(C)c1ccc(/C=C(\C#N)C(=O)O)cc1

SMILES: N#C/C(=C\c1ccc(O)cc1)C(=O)O [alpha-CYANO-4-HYDROXYCINNAMIC ACID]
- IC50 [5]: 281 nM

SMILES: CC(C)Cc1nn(C)c(=O)c2c(SCCCO)n(Cc3cnc(NCCCCCN)c4ccccc34)cc12
- EC50 (Raji): 0.8 nM

SMILES: CC(C)Cc1nn(C)c(=O)c2c(SCCCO)n(Cc3ccc(C#CCCCOc4ccc(C[C@H](N)C(=O)O)cc4)c4ccccc34)cc12
- EC50 (Raji): 0.8 nM

- metabolised at 8 h, 10 µM [6]: 20%
SMILES: C[C@@H](O)[C@H](Nc1ccn([C@@H]2O[C@H](CO)[C@@H](O)C2(F)F)c(=O)n1)C(=O)O

SMILES: CC(C)Cc1nn(C)c(=O)c2c(SCCCO)n(Cc3cc(NCCCCCNC(=O)[C@H](N)CCC(N)=O)nc4ccccc34)cc12
- EC50 (Raji): 0.8 nM

SMILES: CC(C)Cc1nn(C)c(=O)c2c(SCCCO)n(Cc3ccc(C#CCCCNC(=O)[C@H](N)CCC(N)=O)c4ccccc34)cc12
- EC50 (Raji): 4 nM
